Laboratory results as given in article PMC8533333, “Melatonin Analogues Potently Inhibit MAO-B and Protect PC12 Cells against Oxidative Stress” (Antioxidants, 2021).

How the values were obtained:
PC12 cells = conditions: ZnPP 0.2 µM, 6-OHDA 50 µM 24 h
Method: Control cells were incubated in an equivalent volume of DMSO to a final concentration of 0.3%. Neuroprotective effects of the tested compounds on the toxicity induced by 6-OHDA or rotenone in PC12 cells were evaluated as described previously with slight modifications. In brief, cells were pre-treated with the tested compounds or rasagiline at the indicated concentrations for 4 h. Next, they were exposed to 6-OHDA (50 μM) or rotenone (1 μM) for 24 h. In another set of experiments, the influence of HO-1 inhibitor, ZnPP, on the neuroprotective effects of the tested compounds against 6-OHDA-induced oxidative damage was investigated as previously reported. Briefly, the cells were pre-treated with the tested compounds for 4 h and then incubated with 0.2 µM of ZnPP for 30 min. Subsequently, 6-OHDA was added at a final concentration of 50 µM and incubated for 24 h.
After the desired treatment, cell viability was determined by MTT assay as described previously. Briefly, MTT was added to the cells at the final concentration of 0.5 mg/mL, which was followed by incubation for 3 h at 37 °C. […] The absorbance of the dissolved solution was measured at 550 nm using a microplate reader (SpectraMax M2^e, Molecular Devices, Sunnyvale, CA, USA). The cell viability was presented as the percentage of the absorbance measured in the vehicle-treated control cells.

HO-1 = HO-1 protein expression in PC12 cells (Western blotting); type: cell-based, rat; conditions: for HO-1 protein expression over time: 10 μM, 1 to 12 h, significant at 6–12 h; for increase in HO-1 expression: 30 μM, 12 h
Method: PC12 cells were seeded on 35 mm dishes at a density of 2 × 10^6 cells/dish and kept at 37 °C in humidified incubator for at least 24 h. Cells were treated with a series of concentrations of the tested compounds for 12 h or with the tested compounds (10 μM) for the indicated time points. Control cells were treated with serum-free media containing 0.3% DMSO instead. Total cell lysates were prepared according to the methods described previously, and stored at −20 °C until used. To evaluate the effects of the tested compounds on the nuclear translocation of Nrf2, nuclear fraction was separated from cytosolic fraction using NE-PER Nuclear and Cytoplasmic Extraction Reagents (Rockford, IL, USA), following the manufacturer’s directions. The protein concentrations were assessed using a BioRad DC protein assay kit (BioRad, Hercules, CA, USA). Equal amounts of proteins (20 µg) were resolved on 12% or 8% gels via sodium dodecyl sulfate-polyacrylamide gel electrophoresis and electrophoretically transferred onto nitrocellulose membrane (Whatman, Clifton, NJ, USA). Subsequently, immunoblotting was performed using anti-HO-1 or anti-Nrf2 antibodies, respectively, according to the procedures reported previously. Beta-actin, a highly conserved cytoskeletal protein, was used as a loading control of cell lysates to normalize the level of HO-1, while nuclear protein lamin B was used as a nuclear loading control to normalize the level of Nrf2 in the nuclear fraction. Finally, the immunoreactive bands corresponding to HO-1 or Nrf2 proteins were visualized using Clarity^TM Western ECL substrate (Bio-Rad, Hercules, CA, USA) using the BioRad ChemiDoc XRS imaging system (Bio-Rad, Hercules, CA, USA).

[1] = target: T1, Human recombinant MAO-B (hMAO-B) (Homo sapiens, UniProt P27338); test: MAO-B enzyme assay (Amplex Red, resorufin fluorescence); type: biochemical; conditions: for Selectivity Index (SI): IC50 (MAO-A)/IC50 (MAO-B); for IC50: five doses 10-0.001 µM, triplicate; for % Inhibition of MAO-B at 10 µM / inhibition at 10 µM: single dose 10 µM
T1 construct: purchased Sigma Aldrich; host or cells: insect cells
T1 sequence (P27338 1-520): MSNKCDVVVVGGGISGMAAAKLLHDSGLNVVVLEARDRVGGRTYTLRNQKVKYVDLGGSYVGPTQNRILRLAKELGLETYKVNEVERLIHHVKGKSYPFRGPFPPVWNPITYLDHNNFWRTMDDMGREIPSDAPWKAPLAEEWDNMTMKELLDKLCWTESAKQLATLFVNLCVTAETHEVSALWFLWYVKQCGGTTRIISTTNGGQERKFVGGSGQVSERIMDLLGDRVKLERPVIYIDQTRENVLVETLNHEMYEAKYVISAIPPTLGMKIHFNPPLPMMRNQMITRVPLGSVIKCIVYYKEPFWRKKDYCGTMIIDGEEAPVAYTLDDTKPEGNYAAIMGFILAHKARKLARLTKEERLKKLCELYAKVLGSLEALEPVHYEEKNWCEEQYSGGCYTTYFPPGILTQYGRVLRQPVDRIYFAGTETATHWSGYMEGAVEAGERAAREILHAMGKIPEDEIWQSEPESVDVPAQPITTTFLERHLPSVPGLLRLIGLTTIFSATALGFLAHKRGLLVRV
Method: Biological evaluation of the synthesized melatonin derivatives over both MAO-A and MAO-B was performed as reported previously. A detailed description of the protocol is in the Supplementary Materials.
First, the synthesized melatonin analogues (3a–x) were biologically evaluated over an MAO-B recombinant enzyme. The experiment was performed using Amplex® Red reagent technology. This technology offers quantitative enzyme activity sensitive detection, a wider dynamic range, and fluorescence emission outside the range of compound autofluorescence (if any). The Amplex® Red reagent is a colorless substrate that reacts with H2O2 in a 1:1 stoichiometry to produce a highly fluorescent resorufin; therefore, the induced inhibitory effects of the melatonin analogues over MAO-B were examined via spectrophotometry where the fluorescence rate of resorufin dye formation was measured.
Accordingly, compounds 3n, 3r, and 3u–w were further tested to determine their IC50 values over MAO-B in triplicate from the dose–response inhibition curves using Sigma-Plot software 13.0.
6. Materials and methods of monoamine oxidase (MAO) enzyme assay
The inhibitory activity of MAO-A, B enzyme of the compounds was evaluated based on previously described method. The MAO activity was measured in relative fluorescence units (RFU) evoked by peroxidase-catalyzed oxidation of Amplex Red® to resorufin, in which H2O2 generated by MAO reaction was used as the […]. Human recombinant MAO-A (hMAO-A) and MAO-B (hMAO-B) enzyme expressed in insect cells were obtained from Sigma Aldrich. The 2 μL of test compound in DMSO (final concentration: 1 nM – 10 μM) was treated with 98 μL of hMAO enzyme solution in 50 mM sodium phosphate buffer (pH 7.4, final protein amounts: ~1.25 μg protein/well for MAO-A and ~2.5 μg protein/well for MAO -B) on 96-well black plate and incubated for 15 min at 37 °C. Then 100 μL of reaction working solution which is mixed solution of 400 μM Amplex Red® (Cayman, final concentration: 200 μM), 2 U/mL horseradish peroxidase ( Sigma-Aldrich, final concentration: 1 U/mL) and 2 mM substrate ( p-tyramine for MAO -A, benzylamine for MAO -B, Sigma-Aldrich, final concentration: 1 mM) in 50 mM sodium phosphate buffer (pH 7.4) were added and incubated for 20 min at 37 °C in the dark. The fluorescent intensity was quantified using a microplate reader (SpectraMax®i3, Molecular Device) with an excitation at 545 nm and an emission at 590 nm. The 50% inhibitory concentrations (IC50) of compounds were determined as the mean ± S.E.M. in triplicate from the dose-response inhibition curves using SigmaPlot® 13.0. […]

| SMILES | effect of ZnPP on protective effects against 6-OHDA-induced toxicity (PC12 cells) | HO-1 protein expression over time (HO-1) | increase in HO-1 expression (HO-1) | Selectivity Index (SI) [1] | IC50 [1] | % Inhibition of MAO-B at 10 µM [1] | inhibition at 10 µM [1] |
| --- | --- | --- | --- | --- | --- | --- | --- |
| O=C(Nc1ccc2[nH]ccc2c1)c1cccc(Cl)c1 [3n, 3-Chloro-N-(1H-indol-5-yl)benzamide] | completely abolished | time-dependent increases | 1.6 fold | >71 | 1.41 µM | 76.79 ± 0.27% | > 70% |
| O=C(Nc1ccc2[nH]ccc2c1)c1cccc(Br)c1 [3r, 3-Bromo-N-(1H-indol-5-yl)benzamide] | completely abolished | time-dependent increases | 1.7 fold | >109 | 0.91 µM | 87.00 ± 0.03% | > 70% |
